In patent US20100222421A1, “Usage of Baicalein in the Preparation of a Pharmaceutical Composition for the Treatment of Traumatic Brain Injury” (National Defense Medical Center, priority 2009, published 2010):

Tests used:
[1] = system: rats with controlled cortical impact (CCI) injury; assay: Modified neurological severity score (mNSS) after CCI injury; format: in vivo, rat; conditions: P<0.05
Protocol: A previously described CCI injury procedure was utilized (Chen et al., 2003). Male Sprague-Dawley rats, which have body weight of 250-300 g, were anaesthetized with sodium pentobarbital (i.p.; 50 mgkg^−1; Rhone Merieux, Harlow, UK) and placed in a stereotaxic frame. A 5-mm craniotomy was performed over the left parietal cortex, centered on the coronal suture and 3 mm lateral to the sagittal suture. Considerable care was taken to avoid injury to the underlying dura. Injury was made using a pneumatic piston with a rounded metal tip (2.5 mm diameter) that was angled 22.5° C. to the vertical so that the tip was perpendicular with the brain surface at the centre of the craniotomy. A velocity of 4 ms^−1 and a deformation depth 2 mm below the dura were used. The bone flap was immediately replaced and sealed, and the scalp was closed with sutures. Body temperature was monitored throughout the surgery by a rectal probe; temperature was maintained at 37.0±0.5° C. using a heated pad. Rats were placed in a heated cage to maintain body temperature, while recovering from anaesthesia. Baicalein (30 mg kg^−1) dissolved in 10% dimethyl sulphoxide (0.25-0.3 mL) or a corresponding volume of vehicle (10% dimethyl sulphoxide) was administered i.p. immediately following injury or daily for 4 days (immediately, 25, 49 and 73 h) after injury. Behaviour testing using the rotarod, tactile adhesive removal, mNSS and beam walk tests was performed at […] as well as 4, 7, 14, 21 and 28 days post-injury. At 14 and 28 days, the animals were killed, perfused intravascularly and their brains were processed with cresyl violet staining to assess contusion volume (n=8 for each group). […] Behaviour testing was performed before CCI and at […] after CCI by an observer who was unaware of the experimental treatments. The battery of tests consisted of the rotarod motor test, tactile adhesive-removal somatosensory test, mNSS and beam walk test. […] One point was scored for the inability to perform the test or for the lack of a tested reflex; thus, the higher the score, the more severe the injury. […]

[2] = system: rats with controlled cortical impact (CCI) injury; assay: Beam walk test after CCI injury; format: in vivo, rat
Protocol: A previously described CCI injury procedure was utilized (Chen et al., 2003). Male Sprague-Dawley rats, which have body weight of 250-300 g, were anaesthetized with sodium pentobarbital (i.p.; 50 mgkg^−1; Rhone Merieux, Harlow, UK) and placed in a stereotaxic frame. A 5-mm craniotomy was performed over the left parietal cortex, centered on the coronal suture and 3 mm lateral to the sagittal suture. Considerable care was taken to avoid injury to the underlying dura. Injury was made using a pneumatic piston with a rounded metal tip (2.5 mm diameter) that was angled 22.5° C. to the vertical so that the tip was perpendicular with the brain surface at the centre of the craniotomy. A velocity of 4 ms^−1 and a deformation depth 2 mm below the dura were used. The bone flap was immediately replaced and sealed, and the scalp was closed with sutures. Body temperature was monitored throughout the surgery by a rectal probe; temperature was maintained at 37.0±0.5° C. using a heated pad. Rats were placed in a heated cage to maintain body temperature, while recovering from anaesthesia. Baicalein (30 mg kg^−1) dissolved in 10% dimethyl sulphoxide (0.25-0.3 mL) or a corresponding volume of vehicle (10% dimethyl sulphoxide) was administered i.p. immediately following injury or daily for 4 days (immediately, 25, 49 and 73 h) after injury. Behaviour testing using the rotarod, tactile adhesive removal, mNSS and beam walk tests was performed at 28 hours as well as 4, 7, 14, 21 and 28 days post-injury. At 14 and 28 days, the animals were killed, perfused intravascularly and their brains were processed with cresyl violet staining to assess contusion volume (n=8 for each group). […] Behaviour testing was performed before CCI and at […] by an observer who was unaware of the experimental treatments. The battery of tests consisted of the rotarod motor test, tactile adhesive-removal somatosensory test, mNSS and beam walk test. Animals were pretrained for 3 days for the rotarod, tactile adhesiveremoval somatosensory and beam walk tests (see below). The beam walk test was utilized to evaluate fine motor coordination and function (Feeney et al., 1982). Rats escaped from a bright light and loud white noise by walking along a narrowed wooden beam (2.5×122.0 cm) to enter a darkened goal box at the opposite end of the beam. The latency for the rat to reach the goal box (not to exceed 60 s) and hindlimb performance as he traversed the beam (based on a 1-7 rating scale) were recorded. A score of 7 was given when animals traversed the beam with two or less foot slips. A score of 6 was given when animals traversed the beam with less than 50% foot slips. A score of 5 was given for more than 50% but less than 100% foot slips. A score of 4 was given for 100% foot slips. A score of 3 was given for traversal with the affected limb extended and not reaching the surface of the beam. A score of 2 was given when the animal was able to balance on the beam but not traverse it. A score of 1 was given when the animal could not balance on the beam. Three trials were recorded 1 hour before CCI (baseline), and each day after CCI. Mean values of latency and score for each day were computed.

O=c1cc(-c2ccccc2)oc2cc(O)c(O)c(O)c12 [baicalein]
mNSS neurological deficit, multiple-dose versus single-dose treatment ([1]; 30 mg kg^-1 i.p., days 4 and 7 after injury): significantly greater reduction | mNSS scores versus vehicle-treated group ([1]; multiple-dose 30 mg kg^-1 i.p. daily for 4 days, days 1-28): significantly less | mNSS scores versus vehicle-treated group ([1]; single-dose 30 mg kg^-1 i.p., days 1-14): significantly less | differences in hindlimb motor scores between single-dose and multiple-dose groups ([2]; 30 mg kg^-1 i.p., any testing day, P>0.05): not significant | beam walk latencies, multiple-dose versus single-dose group ([2]; 30 mg kg^-1 i.p., days 1 and 4, P<0.05): significantly shorter | beam walk latencies versus vehicle group ([2]; multiple-dose 30 mg kg^-1 i.p. daily for 4 days, days 1, 4, 7, 21 and 28, P<0.05): significantly shorter | decrease in hindlimb motor scores (beam walk) versus vehicle group ([2]; multiple-dose 30 mg kg^-1 i.p. daily for 4 days, days 1, 4, 14, 21 and 28, P<0.05): significantly different | decrease in hindlimb motor scores (beam walk) versus vehicle group ([2]; single-dose 30 mg kg^-1 i.p., days 4, 7, 14 and 21, P<0.05): significantly different | beam walk latencies versus vehicle group ([2]; single-dose 30 mg kg^-1 i.p., days 4 and 21, P<0.05): significantly shorter
